Measurements from US12428415B2, “Matriptase 2 inhibitors and uses thereof” (Disc Medicine, Inc., priority 2018, dated 2025).
Read-outs that look alike come from different tables or passages of the source.

Molecular target: T1, Human Recombinant Matriptase 2 (Homo sapiens, UniProt Q8IU80)
T1 construct: purchased Enzo Life Sciences (an in-house preparation was also used) ALX-201-752-1
T1 sequence (Q8IU80 1-811): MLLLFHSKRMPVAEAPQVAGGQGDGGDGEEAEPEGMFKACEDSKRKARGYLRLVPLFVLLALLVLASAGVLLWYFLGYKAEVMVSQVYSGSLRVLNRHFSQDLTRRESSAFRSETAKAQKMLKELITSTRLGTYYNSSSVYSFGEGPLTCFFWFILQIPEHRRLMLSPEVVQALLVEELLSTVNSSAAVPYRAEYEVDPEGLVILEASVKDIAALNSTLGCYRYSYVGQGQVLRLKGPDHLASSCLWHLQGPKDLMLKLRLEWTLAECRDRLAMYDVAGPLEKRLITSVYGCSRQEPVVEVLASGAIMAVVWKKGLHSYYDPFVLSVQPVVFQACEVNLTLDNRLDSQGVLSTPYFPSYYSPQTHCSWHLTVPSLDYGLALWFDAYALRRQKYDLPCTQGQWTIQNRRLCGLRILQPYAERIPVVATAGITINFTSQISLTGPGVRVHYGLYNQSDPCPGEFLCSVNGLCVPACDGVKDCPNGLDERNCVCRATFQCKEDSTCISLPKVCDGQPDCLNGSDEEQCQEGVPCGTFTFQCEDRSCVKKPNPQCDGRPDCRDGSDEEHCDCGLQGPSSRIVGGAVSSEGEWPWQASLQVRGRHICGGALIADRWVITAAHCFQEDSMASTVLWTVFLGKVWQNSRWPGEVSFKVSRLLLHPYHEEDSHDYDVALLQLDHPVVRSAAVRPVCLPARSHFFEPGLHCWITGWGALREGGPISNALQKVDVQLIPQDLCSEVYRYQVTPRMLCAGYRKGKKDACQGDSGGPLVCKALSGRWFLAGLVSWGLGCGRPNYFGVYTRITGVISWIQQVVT
Experiment: Matriptase 2 fluorescence based inhibition assay, Method B (50 mM TRIS pH 7.5, 150 mM NaCl, 0.01% gelatin)
Format: biochemical
Conditions: read-out: Mar-2 % inhibition at 1 uM
In short: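 Fluorogenic substrate Boc-Gln-Ala-Arg-7-amido-4-methylcoumarin (100 μM) cleavage read at Ex 360/Em 480 nm 60 min after addition, following 30 min enzyme–compound preincubation at 25° C. Enzyme was 7 nM commercial or 15 nM in-house; DMSO 1%. IC50s fitted by non-linear sigmoidal regression.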

[1] = 1 uM compound, Assay Used = B (Method B)

SMILES | inhibition at 1 µM [1] | inhibition at 1 µM
N=C(N)c1ccc2cc(C(=O)N[C@H]3CC[C@H](N)CC3)n(Cc3cc(S(=O)(=O)c4ccccc4)cc4ccccc34)c2c1 [Compound I-727] | 75 to 100% | 
CS(=O)(=O)N[C@H]1CC[C@@H](NC(=O)c2cc3ccc(C(=N)N)cc3n2Cc2cccc3ccccc23)CC1 [Compound I-728] | 75 to 100% | 
N=C(N)c1ccc2cc(C(=O)N[C@H]3CC[C@H](N)CC3)n(Cc3cccc4c(Oc5ccccc5)cccc34)c2c1 [Compound I-731] | 75 to 100% | 
N=C(N)c1ccc2cc(C(=O)O)n(Cc3cc(Oc4ccccc4)cc4ccccc34)c2n1 [Compound I-732] | 25 to 50% | 
N=C(N)c1ccc2cc(C(=O)N[C@H]3CC[C@H](NC(=O)NC(N)=O)CC3)n(Cc3cccc4ccccc34)c2c1 [Compound I-734] | 50 to 75% | 
N=C(N)c1ccc2cc(C(=O)N[C@H]3CC[C@H](NC(N)=O)CC3)n(Cc3cccc4ccccc34)c2c1 [Compound I-736] | 50 to 75% | 
COC(=O)c1cc2ccc(C(=N)NC(=O)Oc3ccccc3)cc2n1Cc1cccc2ccccc12 [Compound I-738] |  | 0 to 25%
CC(C)(C)Sc1cccc2c(Cn3c(C(=O)N[C@H]4CC[C@H](N)CC4)cc4ccc(C(=N)N)cc43)cccc12 [Compound I-739] | 75 to 100% | 
N=C(N)c1ccc2cc(C(=O)N[C@H]3CC[C@H](N)CC3)n(Cc3cccc4cc(OCc5ccccc5)ccc34)c2c1 [Compound I-740] | 75 to 100% | 
N=C(N)c1ccc2cc(C(=O)OCCN)n(Cc3cccc4ccccc34)c2c1 [Compound I-745] | 0 to 25% | 
N=C(N)c1ccc2cc(C(=O)O)n(Cc3cc(Oc4ccccc4)cc4ccccc34)c2c1 [Compound I-746] | 50 to 75% | 
CNC(=N)c1ccc2[nH]c(C(=O)N[C@H]3CC[C@H](N)CC3)c(Cc3cccc4ccccc34)c2c1 [Compound I-747] | 0 to 25% | 
Cc1nnc(-c2cc3ccc(C(=N)N)cc3n2Cc2cccc3ccccc23)o1 [Compound I-751, 2-(5-methyl-1,3,4-oxadiazol-2-yl)-1-(naphthalen-1-ylmethyl)-1H-indole-6-carboximidamide] | 50 to 75% | 
CS(=O)(=O)N[C@H]1CC[C@H](NC(=O)c2cc3ccc(C(=N)N)cc3n2Cc2cccc3ccccc23)CC1 [Compound I-753] | 50 to 75% | 
CC(=O)N[C@H]1CC[C@H](NC(=O)c2cc3ccc(C(=N)N)cc3n2Cc2cccc3ccccc23)CC1 [Compound I-754] | 50 to 75% | 
N=C(N)c1ccc2cc(C(=O)N[C@H]3CC[C@H](N)CC3)n(Cc3cnoc3-c3ccc(Cl)s3)c2c1 [Compound I-755] | 25 to 50% | 
CCCCCCOC(=O)NC(=N)c1ccc2cc(C(=O)NC3CCN(C)CC3)n(Cc3cccc4ccccc34)c2c1 [Compound I-765] | 0 to 25% | 
N=C(N)c1ccc2cc(C(=O)O)n(Cc3cccc4ccccc34)c2n1 [Compound I-766] | 75 to 100% | 
CC(C)(C)OC(=O)NC(=N)c1ccc2cc(C(=O)N[C@H]3CCCc4ccccc43)n(Cc3cccc4ccccc34)c2c1 [Compound I-767] | 0 to 25% | 
N=C(N)c1ccc2cc(C(=O)N[C@H]3CC[C@H](N)CC3)n(Cc3cccc4cc(OCCCc5ccccc5)ccc34)c2c1 [Compound I-770] | 50 to 75% | 
N=C(N)c1ccc2cc(C(=O)Nc3ccc4ncccc4c3)n(Cc3cccc4ccccc34)c2c1 [Compound I-771] | 25 to 50% | 
N=C(N)c1ccc2cc(C(=O)N[C@H]3CC[C@H](N)CC3)n(Cc3cc(-c4ccc(Cl)s4)on3)c2c1 [Compound I-773] | 50 to 75% | 
COc1ccc2cccc(Cn3c(C(=O)N[C@H]4CC[C@H](N)CC4)cc4ccc(C(=N)N)cc43)c2c1 [Compound I-775] | 75 to 100% | 
N=C(N)c1ccc2cc(C(=O)N[C@H]3CC[C@H](N)CC3)n(Cc3ccc(COCc4ccccc4)c4ccccc34)c2c1 [Compound I-781] | 75 to 100% | 
CN1CCC(NC(=O)c2cc3ccc(C(=N)NC(=O)Oc4ccccc4)cc3n2Cc2cccc3ccccc23)CC1 [Compound I-782] |  | 50 to 75%

The next lines start with results.

inhibition at 1 µM [1] | SMILES | inhibition at 1 µM
50 to 75% | N=C(N)c1ccc2cc(C(=O)N[C@H]3CC[C@H](NC=O)CC3)n(Cc3cccc4ccccc34)c2c1 [Compound I-729] | 
50 to 75% | N=C(N)c1ccc2cc(C(=O)O)n(Cc3cccc4c(Oc5ccccc5)cccc34)c2c1 [Compound I-730] | 
75 to 100% | N=C(N)c1ccc2cc(C(=O)N[C@H]3CC[C@H](N)CC3)n(Cc3cc(OCc4ccccc4)cc4ccccc34)c2c1 [Compound I-733] | 
25 to 50% | COC(=O)N[C@H]1CC[C@H](NC(=O)c2cc3ccc(C(=N)N)cc3n2Cc2cccc3ccccc23)CC1 [Compound I-735] | 
75 to 100% | N=C(N)c1ccc2cc(C(=O)N[C@H]3CC[C@H](N)CC3)n(Cc3cc(OCCc4ccccc4)cc4ccccc34)c2c1 [Compound I-737] | 
50 to 75% | N=C(N)c1ccc2cc(C(=O)N[C@H]3CC[C@H](Nc4ncccn4)CC3)n(Cc3cccc4ccccc34)c2c1 [Compound I-741] | 
50 to 75% | CC(C)(C)S(=O)(=O)c1cccc2c(Cn3c(C(=O)N[C@H]4CC[C@H](N)CC4)cc4ccc(C(=N)N)cc43)cccc12 [Compound I-742] | 
50 to 75% | NCc1ccc2cc(C(=O)N[C@H]3CC[C@@H](N)CC3)n(Cc3cccc4ccccc34)c2c1 [Compound I-743] | 
75 to 100% | N=C(N)c1ccc2cc(C(=O)O[C@H]3CC[C@@H](N)CC3)n(Cc3cccc4ccccc34)c2c1 [Compound I-744] | 
75 to 100% | N=C(N)c1ccc2cc(-c3ncco3)n(Cc3cccc4ccccc34)c2c1 [Compound I-748, 1-(naphthalen-1-ylmethyl)-2-(oxazol-2-yl)-1H-indole-6-carboximidamide] | 
50 to 75% | CS(=O)(=O)Nc1cc2ccc(C(=N)N)cc2n1Cc1cccc2ccccc12 [Compound I-749, 2-(methylsulfonamido)-1-(naphthalen-1-ylmethyl)-1H-indole-6-carboximidamide] | 
50 to 75% | N=C(N)c1ccc2cc(-c3nccs3)n(Cc3cccc4ccccc34)c2c1 [Compound I-750, 1-(naphthalen-1-ylmethyl)-2-(thiazol-2-yl)-1H-indole-6-carboximidamide] | 
75 to 100% | CN1CCC(OC(=O)c2cc3ccc(C(=N)N)cc3n2Cc2cccc3ccccc23)CC1 [Compound I-752] | 
75 to 100% | N=C(N)c1ccc2cc(C(=O)N[C@H]3CC[C@H](N)CC3)n(Cc3csc4ccccc34)c2c1 [Compound I-756] | 
50 to 75% | N=C(N)c1ccc2cc(C(=O)NCc3ccncc3)n(Cc3cccc4ccccc34)c2c1 [Compound I-758] | 
0 to 25% | N/C(=N/O)c1ccc2cc(C(=O)O)n(Cc3cccc4ccccc34)c2c1 [Compound I-759] | 
0 to 25% | N=C(N)c1ccc2cc(C(=O)Nc3cccc4c3OCCO4)n(Cc3cccc4ccccc34)c2c1 [Compound I-760] | 
75 to 100% | CN1CCC(COC(=O)c2cc3ccc(C(=N)N)cc3n2Cc2cccc3ccccc23)CC1 [Compound I-761] | 
0 to 25% | CC(=O)NC(=N)c1ccc2cc(C(=O)NC3CCN(C)CC3)n(Cc3cccc4ccccc34)c2c1 [Compound I-762, 6-(N-acetylcarbamimidoyl)-N-(1-methylpiperidin-4-yl)-1-(naphthalen-1-ylmethyl)-1H-indole-2-carboxamide] | 
50 to 75% | N=C(N)c1ccc2cc(C(=O)Nc3ccncc3)n(Cc3cccc4ccccc34)c2c1 [Compound I-763] | 
0 to 25% | N=C(N)c1ccc2cc(C(=O)N[C@H]3CCCc4ccccc43)n(Cc3cccc4ccccc34)c2c1 [Compound I-764] | 
75 to 100% | N=C(N)c1ccc2cc(C(=O)N[C@H]3CC[C@H](N)CC3)n(Cc3cccc4cc(-c5ccccc5)ccc34)c2c1 [Compound I-768] | 
75 to 100% | N=C(N)c1ccc2cc(C(=O)N[C@H]3CC[C@H](N)CC3)n(Cc3cccc4c(OCc5ccccc5)cccc34)c2c1 [Compound I-769] | 
75 to 100% | N=C(N)c1ccc2cc(C(=O)N[C@H]3CC[C@H](N)CC3)n(Cc3cc(C(=O)OCc4ccccc4)cc4ccccc34)c2c1 [Compound I-774] | 
75 to 100% | N=C(N)c1ccc2cc(C(=O)N[C@H]3CC[C@H](N)CC3)n(Cc3cc(Oc4ccccc4)cc4ccccc34)c2c1 [Compound I-777] | 
25 to 50% | CN1CC[C@H](COC(=O)c2cc3ccc(C(=N)N)cc3n2Cc2cccc3ccccc23)c2ccccc21 [Compound I-779] | 
75 to 100% | CC(C)COC(=O)c1cc(Cn2c(C(=O)N[C@H]3CC[C@H](N)CC3)cc3ccc(C(=N)N)cc32)c2ccccc2c1 [Compound I-780] | 
